How the values were obtained:
Experiment in all cases: KINOMEscan (ScanMAX) kinase profiling
Format in all cases: binding
[1] = target: T1, panel of 468 kinases (Homo sapiens, UniProt O14730); conditions: RIOK3; 1 μM; read-out: % control
T1 construct: purchased KINOMEscan (ScanMAX) service
T1 sequence (O14730 1-519): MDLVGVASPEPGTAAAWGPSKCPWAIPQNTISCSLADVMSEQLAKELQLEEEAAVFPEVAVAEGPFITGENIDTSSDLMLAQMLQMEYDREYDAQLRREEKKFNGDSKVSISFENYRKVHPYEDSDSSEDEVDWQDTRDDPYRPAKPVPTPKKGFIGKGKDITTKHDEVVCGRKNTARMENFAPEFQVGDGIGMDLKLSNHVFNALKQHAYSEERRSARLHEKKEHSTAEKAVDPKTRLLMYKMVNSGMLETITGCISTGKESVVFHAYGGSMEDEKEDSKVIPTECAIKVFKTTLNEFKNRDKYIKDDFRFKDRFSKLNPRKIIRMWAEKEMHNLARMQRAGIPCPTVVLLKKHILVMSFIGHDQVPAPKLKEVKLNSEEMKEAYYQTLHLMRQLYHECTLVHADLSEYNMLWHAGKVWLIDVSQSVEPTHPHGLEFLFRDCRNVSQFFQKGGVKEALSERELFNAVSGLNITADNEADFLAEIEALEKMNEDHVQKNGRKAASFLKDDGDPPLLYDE

[2] = target: T2, panel of 468 kinases (Homo sapiens, UniProt O95835); conditions: LATS1; 1 μM; read-out: % control
T2 construct: purchased KINOMEscan (ScanMAX) service
T2 sequence (O95835 1-1130): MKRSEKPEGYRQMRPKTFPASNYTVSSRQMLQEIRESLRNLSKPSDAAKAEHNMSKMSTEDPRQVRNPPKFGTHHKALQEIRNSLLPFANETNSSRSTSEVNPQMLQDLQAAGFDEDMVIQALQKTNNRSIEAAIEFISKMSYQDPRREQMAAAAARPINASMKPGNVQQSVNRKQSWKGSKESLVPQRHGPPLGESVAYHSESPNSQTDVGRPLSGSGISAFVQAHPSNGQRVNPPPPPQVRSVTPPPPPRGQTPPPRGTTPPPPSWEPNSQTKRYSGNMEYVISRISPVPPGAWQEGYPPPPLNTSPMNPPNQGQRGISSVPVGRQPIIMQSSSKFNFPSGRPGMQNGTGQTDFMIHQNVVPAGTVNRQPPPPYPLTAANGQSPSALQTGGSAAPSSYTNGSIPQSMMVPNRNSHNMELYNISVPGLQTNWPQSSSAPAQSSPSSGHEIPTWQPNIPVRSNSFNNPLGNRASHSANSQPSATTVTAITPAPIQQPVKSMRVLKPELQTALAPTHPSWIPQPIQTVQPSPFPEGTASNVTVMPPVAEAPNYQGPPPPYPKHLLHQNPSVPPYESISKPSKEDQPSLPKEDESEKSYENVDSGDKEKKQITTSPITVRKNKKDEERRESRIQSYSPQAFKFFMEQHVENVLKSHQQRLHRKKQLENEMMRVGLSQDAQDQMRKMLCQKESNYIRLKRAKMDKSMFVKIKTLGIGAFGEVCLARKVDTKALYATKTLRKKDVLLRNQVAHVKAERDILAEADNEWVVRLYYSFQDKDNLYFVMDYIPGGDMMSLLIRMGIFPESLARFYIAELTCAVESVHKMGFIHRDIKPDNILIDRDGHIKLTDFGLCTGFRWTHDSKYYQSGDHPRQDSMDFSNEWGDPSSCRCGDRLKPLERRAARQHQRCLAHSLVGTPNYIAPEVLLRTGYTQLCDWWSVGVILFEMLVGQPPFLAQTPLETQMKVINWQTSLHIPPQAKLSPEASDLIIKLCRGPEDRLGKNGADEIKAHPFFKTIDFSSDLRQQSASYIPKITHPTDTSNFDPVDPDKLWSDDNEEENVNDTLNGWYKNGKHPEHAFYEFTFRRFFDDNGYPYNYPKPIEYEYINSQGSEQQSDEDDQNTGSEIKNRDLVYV

[3] = target: T3, panel of 468 kinases (Homo sapiens, UniProt P42685); conditions: FRK; 1 μM; read-out: % control
T3 construct: purchased KINOMEscan (ScanMAX) service
T3 sequence (P42685 whole entry): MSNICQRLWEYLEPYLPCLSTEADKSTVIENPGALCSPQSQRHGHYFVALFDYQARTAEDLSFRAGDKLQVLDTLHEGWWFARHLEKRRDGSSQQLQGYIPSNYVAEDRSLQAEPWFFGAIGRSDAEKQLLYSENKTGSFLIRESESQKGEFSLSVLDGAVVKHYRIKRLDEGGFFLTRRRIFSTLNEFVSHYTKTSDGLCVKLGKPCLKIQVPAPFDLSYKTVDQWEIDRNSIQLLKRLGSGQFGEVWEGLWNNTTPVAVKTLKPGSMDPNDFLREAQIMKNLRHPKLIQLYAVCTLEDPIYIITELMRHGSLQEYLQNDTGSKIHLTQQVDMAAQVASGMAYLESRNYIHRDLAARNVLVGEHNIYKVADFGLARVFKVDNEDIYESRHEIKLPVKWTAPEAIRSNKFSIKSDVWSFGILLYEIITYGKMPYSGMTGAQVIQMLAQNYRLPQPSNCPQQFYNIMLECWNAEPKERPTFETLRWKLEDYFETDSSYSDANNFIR

[4] = target: T4, panel of 468 kinases (Homo sapiens, UniProt P51957); conditions: NEK4; 1 μM; read-out: % control
T4 construct: purchased KINOMEscan (ScanMAX) service
T4 sequence (P51957 whole entry): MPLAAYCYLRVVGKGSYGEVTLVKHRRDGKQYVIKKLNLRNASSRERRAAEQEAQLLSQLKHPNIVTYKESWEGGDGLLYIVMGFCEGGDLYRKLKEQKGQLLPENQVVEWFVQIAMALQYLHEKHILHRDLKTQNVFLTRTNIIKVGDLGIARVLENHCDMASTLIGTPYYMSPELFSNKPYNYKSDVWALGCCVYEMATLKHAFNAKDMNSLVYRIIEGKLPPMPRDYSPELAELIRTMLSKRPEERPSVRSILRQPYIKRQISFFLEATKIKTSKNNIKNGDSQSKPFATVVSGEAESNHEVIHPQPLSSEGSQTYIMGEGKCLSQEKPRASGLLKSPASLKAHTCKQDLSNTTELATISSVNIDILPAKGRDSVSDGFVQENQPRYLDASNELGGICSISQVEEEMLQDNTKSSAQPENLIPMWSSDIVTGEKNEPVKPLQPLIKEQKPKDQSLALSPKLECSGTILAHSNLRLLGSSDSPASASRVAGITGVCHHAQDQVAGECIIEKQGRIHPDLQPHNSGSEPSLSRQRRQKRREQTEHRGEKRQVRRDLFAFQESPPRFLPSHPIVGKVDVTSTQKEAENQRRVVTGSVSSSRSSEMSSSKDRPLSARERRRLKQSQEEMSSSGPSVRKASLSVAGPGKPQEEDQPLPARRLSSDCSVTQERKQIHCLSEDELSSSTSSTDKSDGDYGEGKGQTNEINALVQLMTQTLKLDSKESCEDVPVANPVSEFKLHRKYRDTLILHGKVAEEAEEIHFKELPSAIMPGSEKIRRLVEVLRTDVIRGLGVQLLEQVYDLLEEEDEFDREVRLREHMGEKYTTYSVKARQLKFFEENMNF

[5] = target: T5, panel of 468 kinases (Homo sapiens, UniProt P53350); conditions: PLK1; 1 μM; read-out: % control
T5 construct: purchased KINOMEscan (ScanMAX) service
T5 sequence (P53350 whole entry): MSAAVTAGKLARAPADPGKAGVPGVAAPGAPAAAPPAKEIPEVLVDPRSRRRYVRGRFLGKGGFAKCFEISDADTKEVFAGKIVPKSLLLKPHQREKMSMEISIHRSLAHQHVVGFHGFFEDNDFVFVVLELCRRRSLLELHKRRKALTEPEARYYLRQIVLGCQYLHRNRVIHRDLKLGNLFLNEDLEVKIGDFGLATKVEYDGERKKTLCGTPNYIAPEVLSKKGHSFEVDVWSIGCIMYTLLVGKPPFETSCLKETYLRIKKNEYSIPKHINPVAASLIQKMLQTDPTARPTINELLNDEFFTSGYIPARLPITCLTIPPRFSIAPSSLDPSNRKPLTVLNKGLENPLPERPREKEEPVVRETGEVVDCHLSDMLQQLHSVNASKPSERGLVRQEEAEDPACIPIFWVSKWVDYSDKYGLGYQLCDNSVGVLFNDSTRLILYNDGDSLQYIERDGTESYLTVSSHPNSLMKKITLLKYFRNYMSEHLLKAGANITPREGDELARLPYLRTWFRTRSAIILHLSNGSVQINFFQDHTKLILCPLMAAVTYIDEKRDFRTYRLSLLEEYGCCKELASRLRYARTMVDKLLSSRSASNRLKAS

[6] = target: T6, panel of 468 kinases (Homo sapiens, UniProt Q15835); conditions: GRK1; 1 μM; read-out: % control
T6 construct: purchased KINOMEscan (ScanMAX) service
T6 sequence (Q15835 1-563): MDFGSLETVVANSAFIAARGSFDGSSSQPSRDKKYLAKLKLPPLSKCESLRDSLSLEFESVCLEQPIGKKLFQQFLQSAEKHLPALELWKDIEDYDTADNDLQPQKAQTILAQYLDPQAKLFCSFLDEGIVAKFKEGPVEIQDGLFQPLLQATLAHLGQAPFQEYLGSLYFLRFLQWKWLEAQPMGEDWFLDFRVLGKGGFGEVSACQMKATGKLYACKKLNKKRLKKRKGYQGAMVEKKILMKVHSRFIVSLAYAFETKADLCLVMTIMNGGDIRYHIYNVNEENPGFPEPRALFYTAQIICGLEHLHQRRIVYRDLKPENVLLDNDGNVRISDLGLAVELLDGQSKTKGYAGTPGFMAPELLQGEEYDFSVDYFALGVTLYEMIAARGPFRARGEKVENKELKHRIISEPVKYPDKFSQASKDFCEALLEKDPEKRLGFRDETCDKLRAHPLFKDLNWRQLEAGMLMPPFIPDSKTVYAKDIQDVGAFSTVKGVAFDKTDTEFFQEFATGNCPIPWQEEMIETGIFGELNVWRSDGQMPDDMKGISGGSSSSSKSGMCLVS

[7] = target: T7, panel of 468 kinases (Homo sapiens, UniProt Q16620); conditions: TRKB; 1 μM; read-out: % control
T7 construct: purchased KINOMEscan (ScanMAX) service
T7 sequence (Q16620 32-822): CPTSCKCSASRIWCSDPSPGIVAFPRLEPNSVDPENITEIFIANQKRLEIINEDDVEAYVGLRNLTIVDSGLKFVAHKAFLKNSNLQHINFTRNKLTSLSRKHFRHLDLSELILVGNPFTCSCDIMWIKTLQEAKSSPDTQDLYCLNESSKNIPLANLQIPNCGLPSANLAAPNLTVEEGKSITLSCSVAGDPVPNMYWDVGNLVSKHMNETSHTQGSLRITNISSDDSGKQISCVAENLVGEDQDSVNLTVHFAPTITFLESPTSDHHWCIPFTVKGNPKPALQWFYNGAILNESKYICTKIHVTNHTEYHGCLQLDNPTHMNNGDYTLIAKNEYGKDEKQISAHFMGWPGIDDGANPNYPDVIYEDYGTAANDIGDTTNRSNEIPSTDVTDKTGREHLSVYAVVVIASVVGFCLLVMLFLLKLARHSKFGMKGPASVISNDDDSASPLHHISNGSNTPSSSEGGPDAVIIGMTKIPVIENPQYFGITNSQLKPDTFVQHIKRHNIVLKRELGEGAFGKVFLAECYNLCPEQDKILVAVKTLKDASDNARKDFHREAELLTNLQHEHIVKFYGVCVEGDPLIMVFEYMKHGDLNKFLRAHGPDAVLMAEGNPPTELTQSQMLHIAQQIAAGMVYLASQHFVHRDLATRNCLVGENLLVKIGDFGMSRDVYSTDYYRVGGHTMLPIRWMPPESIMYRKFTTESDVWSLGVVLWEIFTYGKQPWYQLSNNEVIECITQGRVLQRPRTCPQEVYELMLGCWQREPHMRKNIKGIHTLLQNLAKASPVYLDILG

[8] = target: T8, panel of 468 kinases (Homo sapiens, UniProt Q9P1W9); conditions: PIM2; 1 μM; read-out: % control
T8 construct: purchased KINOMEscan (ScanMAX) service
T8 sequence (Q9P1W9 whole entry): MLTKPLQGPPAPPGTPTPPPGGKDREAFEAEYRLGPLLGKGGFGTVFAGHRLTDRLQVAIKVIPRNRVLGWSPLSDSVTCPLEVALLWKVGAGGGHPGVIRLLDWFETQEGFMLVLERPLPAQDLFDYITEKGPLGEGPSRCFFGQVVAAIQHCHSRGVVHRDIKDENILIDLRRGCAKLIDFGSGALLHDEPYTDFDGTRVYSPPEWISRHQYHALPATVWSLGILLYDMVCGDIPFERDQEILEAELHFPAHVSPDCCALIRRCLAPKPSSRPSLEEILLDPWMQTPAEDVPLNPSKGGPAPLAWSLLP

| SMILES | remaining binding at 1 µM [1] [%] | remaining binding at 1 µM [2] [%] | remaining binding at 1 µM [3] [%] | remaining binding at 1 µM [4] [%] | remaining binding at 1 µM [5] [%] | remaining binding at 1 µM [6] [%] | remaining binding at 1 µM [7] [%] | remaining binding at 1 µM [8] [%] |
| --- | --- | --- | --- | --- | --- | --- | --- | --- |
| CNc1nc(Nc2ccc(S(=O)(=O)N3CCC(N4CCOCC4)CC3)cc2OC)nc2[nH]cc(Cl)c12 [Compound 12, 5-chloro-N2-(2-methoxy-4-((4-morpholinopiperidin-1-yl)sulfonyl)phenyl)-N4-methyl-7H-pyrrolo[2,3-d]pyrimidine-2,4-diamine] | 89 | 100 | 100 | 100 | 82 | 79 | 100 | 99 |
| CNc1nc(Nc2ccc(C(=O)N3CCC(N4CCOCC4)CC3)c3c2OCO3)nc2[nH]cc(Cl)c12 [Compound 75, (7-((5-chloro-4-(methylamino)-7H-pyrrolo[2,3-d]pyrimidin-2-yl)amino)benzo[d][1,3]dioxol-4-yl)(4-morpholinopiperidin-1-yl)methanone] | 28 | 100 | 100 | 100 | 78 | 88 | 100 | 100 |
| CNc1nc(Nc2ccc(P3(=O)CCN(C4CCOCC4)CC3)cc2OC)nc2[nH]cc(Cl)c12 [Compound 77, 4-(4-((5-chloro-4-(methylamino)-7H-pyrrolo[2,3-d]pyrimidin-2-yl)amino)-3-methoxyphenyl)-1-(tetrahydro-2H-pyran-4-yl)-1,4-azaphosphinane 4-oxide] | 88 | 100 | 100 | 100 | 86 | 88 | 100 | 100 |

Reference: patent US12479847B2 (DANA-FARBER CANCER INSTITUTE, INC., priority 2019, dated 2025)
